Laboratory results published in US20250161180A1, “NOVEL USE OF 4-AMIDINO BENZYLAMINES” (DSM IP Assets B.V., priority 2022, published 2025).

Tested on: collagen type 1
Assay: in vitro dermal fibroblast collagen assay (collagen 1 immunolabeling, flow cytometry)
Assay type: cell-based, human
Details: for Collagen 1 expression relative to untreated (%): normal human dermal fibroblasts, 72 hours, mean (n = 4), untreated = 100%
Experimental: Amidinobenzyl Benzylsulfonyl D-Seryl Homophenylalaninamide Acetate (ABSHA) was evaluated for its effect on collagen type 1. This was done using an in vitro dermal fibroblast collagen assay.
Normal human dermal fibroblasts were seeded in cell culture medium (Dulbecco's Modified Eagle Medium supplemented with 10% serum and 1% antibiotics) and allowed to adhere in a humidified cell incubator maintaining 37° C. and 5% CO2. Afterwards, the cells were starved with culture medium without serum for 16-24 hours to synchronize the cells their cell cycle. The starvation medium was removed and cell culture medium+SYN®-UP at various concentrations was added to the cells. The cells were treated for 72 hours. The cells were then fixated and immunolabeled with antibodies specific for collagen 1. These labeled cells were analyzed using flow cytometry and compared to the untreated ones (medium without SYN®-UP).
Table 1. […] Data are normalized to the untreated control (100%) and expressed as the mean±SD (n=4).

In the case of `N=C(N)c1ccc(CNC(=O)C(CCc2ccccc2)NC(=O)C(CO)NS(=O)(=O)Cc2ccccc2)cc1` [ABSHA, Amidinobenzyl Benzylsulfonyl D-Seryl Homophenylalaninamide Acetate], the “effect on collagen type 1 expression (in words)” value (in vitro dermal fibroblast collagen assay) is reported as “increases collagen expression”, the “Collagen 1 expression relative to untreated (%)” value (1 μM) is reported as 144% and the “Collagen 1 expression relative to untreated (%)” value (5 μM) is reported as 160%. The “Collagen 1 expression relative to untreated (%)” value (25 μM) was 185% and the “Collagen 1 expression relative to untreated (%)” value (concentration printed only as "μM" (figure missing)) was 188%.
